In US20060089499A1, “Pyrazolopyrimidines and the use thereof for controlling harmful organisms” (priority 2002, published 2006):

Test system: diamondback moth (Plutella xyostella)
Assay: Plutella test (plant-damaging insects)
Assay type: in vivo
Conditions: 1000 ppm active compound on synthetic feed, eggs/larvae
Method: Plutella Test [table] To produce a suitable preparation of active compound, 1 part by weight of active compound is mixed with the stated amount of solvent, and the concentrate is diluted with methanol to the desired concentrations. A stated amount of preparation of active compound of the desired concentration is pipetted onto a standardized amount of synthetic feed. After the methanol has evaporated, about 200-300 eggs of the diamondback moth (Plutella xyostella) are placed onto the feed. After the desired period of time, the kill of the eggs or larvae in % is determined. 100% means that all animals have been killed; 0% means that none of the animals has been killed.

Compound: CC(Nc1c(-c2ccc(F)cc2Cl)c(Cl)nc2c(C#N)cnn12)C(F)(F)F (stereo not shown) [drawing 144]
- Kill rate in % after 7^d: 100%
